Data reported in patent publication US9023789B2, “Amylin analogs and pharmaceutical compositions thereof” (Novo Nordisk A/S, priority 2012, dated 2015).
Numbered stars: 1 amine (or outer) side, 2 acyl side, 3 side chain; on linkers, the order of the positions; unused ones are H or OH. Bridge positions count the residues as written; N and C are the ends. Side chains are listed from the residue outwards. Peptide text beside a SMILES is read from it. * marks the point of attachment. C20 diacid = O=C(O)CCCCCCCCCCCCCCCCCCC(=O)*; γGlu = O=C(O)[C@H](CCC(=O)[*:2])N[*:1]

Experiments:
[1] = biological target: T1, human amylin 3(a) receptor (human calcitonin receptor + RAMP-3) in BHK570 cells (Homo sapiens, UniProt O60896+P30988); assay: ASSAY (II)a functional assay, human amylin receptor (CRE luciferase); type: cell-based
T1 construct: expressed in transfected cells
Summary of the method: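 BHK cells stably carrying a CRE-luciferase reporter plus calcitonin receptor, or calcitonin receptor with RAMP-3 for the amylin 3(a) receptor, were seeded and kept overnight at 37° C. Compounds were added in assay medium with 10% FBS and 10 mM Hepes, pH 7.4, for 3 hours at 37° C, then luminescence was counted.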

[2] = biological target: T2, human amylin receptor (membranes from Amylin 3(a)/CRE-luc cells) (Homo sapiens, UniProt O60896+P30988); assay: ASSAY (V) binding to the human amylin receptor (SPA, 125I-rat amylin);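 note: competition binding of cell membranes (35 ng/µL) mixed with SPA beads in 384-well plates at 40 µL total volume, read by scintillation counting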
T2 construct: expressed in transfected cells
T2 sequence (P30988 25-474): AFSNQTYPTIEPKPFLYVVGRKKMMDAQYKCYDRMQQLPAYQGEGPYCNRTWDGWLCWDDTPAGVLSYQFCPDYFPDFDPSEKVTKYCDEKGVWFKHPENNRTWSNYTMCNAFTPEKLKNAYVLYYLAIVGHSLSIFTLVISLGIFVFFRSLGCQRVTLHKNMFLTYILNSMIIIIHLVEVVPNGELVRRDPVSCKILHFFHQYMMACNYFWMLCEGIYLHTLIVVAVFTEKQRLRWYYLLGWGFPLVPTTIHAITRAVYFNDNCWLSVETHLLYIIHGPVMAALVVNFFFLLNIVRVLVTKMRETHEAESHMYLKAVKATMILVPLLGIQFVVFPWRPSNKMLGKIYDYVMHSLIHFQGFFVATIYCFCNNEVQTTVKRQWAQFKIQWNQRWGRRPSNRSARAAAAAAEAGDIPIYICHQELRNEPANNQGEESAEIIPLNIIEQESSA
T2 sequence (O60896 24-148 partner): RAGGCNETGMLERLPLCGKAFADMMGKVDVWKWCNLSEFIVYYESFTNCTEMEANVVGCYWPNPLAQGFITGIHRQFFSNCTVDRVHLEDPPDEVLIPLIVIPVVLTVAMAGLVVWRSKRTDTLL

[3] = biological target: T3, rat amylin receptor (rat calcitonin receptor + rat RAMP 3) (Rattus norvegicus, UniProt P32214+Q9JJ73); assay: ASSAY (VI) binding to the rat amylin receptor; conditions: for IC50: binding to rat amylin receptor, read-out: rAmylin-R bind IC50
T3 construct: expressed in transfected cells; host or cells: BHK tk'ts 13 (transient, FuGENE 6), membranes
T3 sequence (P32214 25-479 isoform P32214-2 limits assumed): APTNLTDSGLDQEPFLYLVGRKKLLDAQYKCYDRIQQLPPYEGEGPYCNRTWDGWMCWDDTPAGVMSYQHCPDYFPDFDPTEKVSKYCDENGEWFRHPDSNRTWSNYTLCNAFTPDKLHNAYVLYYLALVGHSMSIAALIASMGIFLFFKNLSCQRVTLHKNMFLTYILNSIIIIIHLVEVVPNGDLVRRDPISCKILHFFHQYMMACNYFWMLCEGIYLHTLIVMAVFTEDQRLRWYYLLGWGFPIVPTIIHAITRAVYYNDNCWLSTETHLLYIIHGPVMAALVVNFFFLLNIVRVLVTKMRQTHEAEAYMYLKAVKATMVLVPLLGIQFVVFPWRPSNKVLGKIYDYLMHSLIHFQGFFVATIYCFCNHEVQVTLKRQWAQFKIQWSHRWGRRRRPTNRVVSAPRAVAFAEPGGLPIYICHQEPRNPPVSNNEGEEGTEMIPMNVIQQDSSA
T3 sequence (Q9JJ73 23-147 partner): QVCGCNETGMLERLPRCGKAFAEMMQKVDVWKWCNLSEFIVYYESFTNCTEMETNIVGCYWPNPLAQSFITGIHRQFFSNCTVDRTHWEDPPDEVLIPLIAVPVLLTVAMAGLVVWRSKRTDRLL
Summary of the method: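 Binding to the rat amylin receptor was determined with membrane preparations. The receptor was expressed by transiently transfecting BHK tk′ts 13 cells with rat calcitonin receptor, using FuGENE® 6 (Roche) according to the manufacturer's recommendations. Roughly 48 hours later the cells were harvested and their membranes isolated.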

rat calcitonin receptor = biological target: T4, rat calcitonin receptor (Rattus norvegicus, UniProt P32214); assay: ASSAY (VIII) binding to the rat calcitonin receptor; conditions: Table 7, read-out: rCTR bind IC50
T4 construct: expressed in transfected cells; host or cells: BHK tk'ts 13 (transient, FuGENE 6), membranes
T4 sequence (P32214 25-479 isoform P32214-2 limits assumed): T3 sequence (P32214 25-479 isoform P32214-2 limits assumed)
Summary of the method: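 Rat calcitonin receptor is expressed transiently in BHK tk′ts 13 cells cultured in DMEM with 10% FBS. Roughly two days (approximately 48 hours) post-transfection, cells are harvested for membrane preparation.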

[4] = hCTR funct. EC50 divided by hAmylin-R funct. EC50
[5] = hCTR funct. EC50 over hAmylin-R funct. EC50
[6] = human functional selectivity: hCTR funct. EC50 / hAmylin-R funct. EC50
[7] = Table 5, selectivity, hCTR bind IC50 / hAmylin-R bind IC50
[8] = Table 5a, selectivity, hCTR bind IC50 / hAmylin-R bind IC50
[9] = Table 5b, selectivity, hCTR bind IC50 / hAmylin-R bind IC50
[10] = Table 5c, selectivity, hCTR bind IC50 / hAmylin-R bind IC50
[11] = Table 7, human binding selectivity, included for comparison
[12] = Table 7a (preferred compounds), human binding selectivity, included for comparison
[13] = ratio of human calcitonin receptor binding IC50 to human amylin receptor binding IC50
[14] = Table 7, rat binding selectivity, rCTR IC50 / rAmylin-R IC50
[15] = Table 7a (preferred compounds), rat binding selectivity, rCTR IC50 / rAmylin-R IC50
[16] = ratio of rCTR bind IC50 to rAmylin-R bind IC50

| Compound | Ratio hCT/hAmylin funct. [1, 4] | Ratio hCT/hAmylin funct. [1, 5] | Ratio hCT/hAmylin funct. [1, 6] | Ratio hCT/hAmylin binding [2, 7] | Ratio hCT/hAmylin binding [2, 8] | Ratio hCT/hAmylin binding [2, 9] | Ratio hCT/hAmylin binding [2, 10] | Ratio hCT/hAmylin binding [2, 11] | Ratio hCT/hAmylin binding [2, 12] | Ratio hCT/hAmylin binding [2, 13] | IC50 ([3]; Table 7) [nM] | Ratio rCT/rAmylin binding [3, 14] | Ratio rCT/rAmylin binding [3, 15] | Ratio rCT/rAmylin binding [3, 16] | IC50 (rat calcitonin receptor) [nM] | Ratio hCT/hAmylin funct. ([1]; hCTR funct. EC50 / hAmylin-R funct. EC50) |
| --- | --- | --- | --- | --- | --- | --- | --- | --- | --- | --- | --- | --- | --- | --- | --- | --- |
| CC[C@H](C)[C@H](NC(=O)[C@H](C)NC(=O)CNC(=O)[C@H](Cc1ccccc1)NC(=O)[C@H](CC(N)=O)NC(=O)[C@@H]1CCCN1C(=O)[C@H](CO)NC(=O)[C@H](CO)NC(=O)[C@H](Cc1c[nH]cn1)NC(=O)[C@H](CCCNC(=N)N)NC(=O)[C@H](CC(C)C)NC(=O)[C@H](Cc1ccccc1)NC(=O)[C@H](CC(N)=O)NC(=O)[C@H](C)NC(=O)[C@H](CC(C)C)NC(=O)[C@H](CCCNC(=N)N)NC(=O)[C@H](CCC(N)=O)NC(=O)[C@@H](NC(=O)[C@H](C)NC(=O)[C@@H]1CSSC[C@H](NC(=O)[C@@H](N)CCCCNC(=O)CC[C@H](NC(=O)CCCCCCCCCCCCC(=O)O)C(=O)O)C(=O)N[C@@H](CC(N)=O)C(=O)N[C@@H]([C@@H](C)O)C(=O)N[C@@H](C)C(=O)N[C@@H]([C@@H](C)O)C(=O)N1)[C@@H](C)O)C(=O)N1CCC[C@H]1C(=O)N[C@@H](CO)C(=O)N[C@@H](CO)C(=O)N[C@H](C(=O)N[C@@H](CC(N)=O)C(=O)N[C@H](C(=O)NCC(=O)N[C@@H](Cc1c[nH]cn1)C(=O)N[C@@H](CC(N)=O)C(=O)N[C@H](C(=O)N[C@@H](Cc1ccc(O)cc1)C(N)=O)[C@@H](C)O)C(C)C)[C@@H](C)O [Example 112] | 38.8 | 38.8 | 38.8 | 23.5 | 23.5 | 23.5 | 23.5 | 23.5 | 23.5 | 23.5 | 2.52 | 280.1 | 280.1 | 280.1 | 707 | – |
| CC[C@H](C)[C@H](NC(=O)[C@H](C)NC(=O)CNC(=O)[C@H](Cc1ccccc1)NC(=O)[C@H](CC(N)=O)NC(=O)[C@@H]1CCCN1C(=O)[C@H](CO)NC(=O)[C@H](CO)NC(=O)[C@H](Cc1c[nH]cn1)NC(=O)[C@H](CCCNC(=N)N)NC(=O)[C@H](CC(C)C)NC(=O)[C@H](Cc1ccccc1)NC(=O)[C@H](CC(N)=O)NC(=O)[C@H](C)NC(=O)[C@H](CC(C)C)NC(=O)[C@H](CCCNC(=N)N)NC(=O)[C@H](CCC(N)=O)NC(=O)[C@@H](NC(=O)[C@H](C)NC(=O)[C@@H]1CSSC[C@H](NC(=O)[C@@H](N)CCCCNC(=O)CC[C@H](NC(=O)CCCCCCCCCCCCCCCCC(=O)O)C(=O)O)C(=O)N[C@@H](CC(N)=O)C(=O)N[C@@H]([C@@H](C)O)C(=O)N[C@@H](C)C(=O)N[C@@H]([C@@H](C)O)C(=O)N1)[C@@H](C)O)C(=O)N1CCC[C@H]1C(=O)N[C@@H](CO)C(=O)N[C@@H](CO)C(=O)N[C@H](C(=O)N[C@@H](CC(N)=O)C(=O)N[C@H](C(=O)NCC(=O)N[C@@H](Cc1c[nH]cn1)C(=O)N[C@@H](CC(N)=O)C(=O)N[C@H](C(=O)N[C@@H](Cc1ccc(O)cc1)C(N)=O)[C@@H](C)O)C(C)C)[C@@H](C)O [Example 113] | 60.9 | 60.9 | 60.9 | 59.4 | 59.4 | 59.4 | 59.4 | 59.4 | 59.4 | 59.4 | 1.17 | 40.3 | 40.3 | 40.3 | 47 | – |
| CC[C@H](C)[C@H](NC(=O)[C@H](C)NC(=O)CNC(=O)[C@H](Cc1ccccc1)NC(=O)[C@H](CC(N)=O)NC(=O)[C@@H]1CCCN1C(=O)[C@H](CO)NC(=O)[C@H](CO)NC(=O)[C@H](Cc1c[nH]cn1)NC(=O)[C@H](CCCNC(=N)N)NC(=O)[C@H](CC(C)C)NC(=O)[C@H](Cc1ccccc1)NC(=O)[C@H](Cc1c[nH]cn1)NC(=O)[C@H](C)NC(=O)[C@H](CC(C)C)NC(=O)[C@H](CCCNC(=N)N)NC(=O)[C@H](CCC(N)=O)NC(=O)[C@@H](NC(=O)[C@H](C)NC(=O)[C@@H]1CSSC[C@H](NC(=O)[C@@H](N)CCCCNC(=O)CC[C@H](NC(=O)CCCCCCCCCCCCCCCCCCC(=O)O)C(=O)O)C(=O)N[C@@H](CC(N)=O)C(=O)N[C@@H]([C@@H](C)O)C(=O)N[C@@H](C)C(=O)N[C@@H]([C@@H](C)O)C(=O)N1)[C@@H](C)O)C(=O)N1CCC[C@H]1C(=O)N[C@@H](CO)C(=O)N[C@@H](CO)C(=O)N[C@H](C(=O)N1CCC[C@H]1C(=O)N[C@H](C(=O)NCC(=O)N1CCC[C@H]1C(=O)N[C@@H](CC(N)=O)C(=O)N[C@H](C(=O)N[C@@H](Cc1ccc(O)cc1)C(N)=O)[C@@H](C)O)C(C)C)[C@@H](C)O [Example 116] (H-K([γGlu-C20 diacid])CNTATCATQRLAHFLRHSSPNFGAIPSSTPVGPNTY-NH2; disulfide 2-7) | 4.9 | – | 4.9 | 24.8 | 24.8 | 24.8 | 24.8 | 24.8 | 24.8 | 24.8 | 0.125 | 72.4 | 72.4 | 72.4 | 9.05 | 4.9 |
